“And” between values parts separate entries of the source, which are not always exact repeats. Equal entries are not always repeated.

Assay type in all cases: cell-based
One series concerns biosynthesis of PGE2. Put plainly: Production of PGE2 in LPS-stimulated mouse peritoneal cells. Conditions: for activity at 50 µM: Mus musculus, 5 h, compound 50 μmol·l^−1, with LPS 10 ng/ml, 5 hours, LPS alone = 100%, low values = strong inhibition, read-out: PGE2 remaining activity in % of LPS response (mean ± SEM); for IC50: concentration-effect experiments, 0.0004 to 25 μmol·l^−1, mouse peritoneal cells, LPS, read-out: PGE2 IC50, and 95% limits of confidence (in parentheses). The protocol: Production of PGE2 was assayed in vitro in cultures of mouse peritoneal cells. The cells (2×10^6/mL) were stimulated with bacterial lipopolysaccharide (LPS, 10 ng/ml). Tested pyrimidine derivatives were applied at the concentration of 50 μmol.l^−1, concomitantly with LPS. Amount of PGE2 in cell supernatants was determined 5 hours after stimulation using the commercially available kit (R&D Systems). The effects of pyrimidines on PGE2 production were evaluated in percent of control values, i.e. those found after the action of LPS alone (100%). The data in Table 2 show the remaining activity; the low values thus indicate strong inhibition of PGE2 formation.
The concentrations required to inhibit PGE2 biosynthesis by 50% (so-called IC50) were determined by the analysis of concentration-effect experiments. For this purpose, the compounds were applied within the range of 0.0004 μmol.l^−1 až 25 μmol.l^−1.

Another series relates to mouse peritoneal cells. The series is described as follows: Cell viability, lactate dehydrogenase (LDH) assay. Conditions: compound 50 μmol·l^−1, 5 hours. The protocol:
Cell viability was determined using the lactate dehydrogenase assay (LDH kit, Sigma-Aldrich). The mouse peritoneal cells were cultured for 5 hours in the presence of tested compounds applied at the concentration of 50 μmol.l^−1. The effects of pyrimidines were compared with the viability of cells cultured in the absence of the compounds. The later was taken as a control 100% viability.

Series [1] concerns production of nitric oxide (NO). The series is described as follows: Production of nitric oxide (NO) in LPS/IFN-γ-stimulated murine peritoneal cells (Griess reagent). The settings on record: Mus musculus; compound 50 μmol·l^−1, LPS 0.1 ng/ml + IFN-γ 5 ng/ml, nitrites at 24 h; LPS/IFN-γ alone = 100%; read-out: Production of NO in % of controls. The protocol:
Similar to the PGE2 assay, the production of nitric oxide (NO) was followed under conditions in vitro using murine peritoneal cells (FIG. 1). The cells (2×10^6/ml) were cultured in presence of lipopolysaccharide (LPS, 0.1 ng/ml) and recombinant mouse interferon-γ (IFN-γ, 5 ng/ml). Effects of tested pyrimidine derivatives were screened at the concentration of 50 μmol.l^−1. The compounds were added concomitantly with LPS/IFN-γ. The concentration of nitrites in cell supernatants (a measure of NO production) was evaluated spectrophotometrically, 24 h after the priming stimuli. Griess reagent was used for this purpose. The effects of pyrimidines on NO production were evaluated in percent of control values, i.e those found after the action of LPS/IFN-γ alone (100%).
On the technique in general: The Griess reaction detects nitrite, a stable product of nitric oxide.

With `COc1ccc(COc2ccc(-c3cc(-c4ccccc4)nc(N)n3)cc2)cc1` [Compound 1g], the activity at 50 µM with biosynthesis of PGE2 was found to be 8.4 ± 3%. Besides, in the series with mouse peritoneal cells, the “Cell viability in % of untreated controls (LDH assay)” value (“Cell viability in %” for short) is 99.6 ± 3.0 (n = 4) %.
In the case of `CCCCc1c(-c2ccccc2)nc(N)nc1-c1cc(C)c(OCc2cccc(Cl)c2)c(C)c1` [Compound 1o, 5-butyl-4-(4-((3-chlorobenzyl)oxy)-3,5-dimethylphenyl)-6-phenylpyrimidin-2-amine], the activity at 50 µM in the series with biosynthesis of PGE2 was 6.5 ± 0.4%. In addition, the “Cell viability in %” value in the series with mouse peritoneal cells is 102.8 ± 0.4 (n = 8) %.
On the same counts, the results for `CCCCc1c(-c2ccccc2)nc(N)nc1-c1cc(C)c(OCc2ccccc2Cl)c(C)c1` [Compound 1n, 5-butyl-4-(4-((2-chlorobenzyl)oxy)-3,5-dimethylphenyl)-6-phenylpyrimidin-2-amine] are 7.1 ± 1.9% and 103.6 ± 0.3 (n = 8) %.
For `CCCCc1c(-c2ccccc2)nc(N)nc1-c1ccc(OCC)cc1` [Compound 1a, 5-butyl-4-(4-ethoxyphenyl)-6-phenylpyrimidin-2-amine], the activity at 50 µM in the series with biosynthesis of PGE2 worked out at 26.3 ± 0.1%. Also, the “Cell viability in %” value in the series on mouse peritoneal cells is 104.6 ± 1.3 (n = 8) %.
For `CCCCc1c(-c2ccc(OC)cc2)nc(N)nc1-c1ccc(OCc2ccccc2)cc1` [Compound 2b, 4-(4-(benzyloxy)phenyl)-5-butyl-6-(4-methoxyphenyl)pyrimidin-2-amin], the activity at 50 µM in the series on biosynthesis of PGE2 is 10.5 ± 0.1%. The “Cell viability in %” value in the series on mouse peritoneal cells was 100.3 ± 1.2 (n = 4) %.
On the same counts, the results for `Nc1nc(-c2ccccc2)cc(-c2ccc(OCc3ccccc3)cc2)n1` [Compound 1d, 4-(4-(benzyloxy)phenyl)-6-phenylpyrimidin-2-amine] are 0.7 ± 0.8% and 101.2 ± 0.7 (n = 4) %.
In the same order, the values of `CCCCc1c(-c2ccc(Cl)cc2)nc(N)nc1-c1ccc(OCc2ccccc2)cc1` [Compound 2d, 4-(4-(benzyloxy)phenyl)-5-butyl-6-(4-chlorophenyl)pyrimidin-2-amine] are 4.1 ± 0.7% and 96.7 ± 2.2 (n = 4) %.
Usually IC50 stands for the concentration at which inhibition is half-maximal. With `CCCCc1c(-c2ccccc2)nc(N)nc1-c1ccc(OCc2ccccc2)c(F)c1F` [Compound 1m, 4-(4-(benzyloxy)-2,3-difluorophenyl)-5-butyl-6-phenylpyrimidin-2-amine], the figures for the activity at 50 µM (with biosynthesis of PGE2; in series [1]) were 0.03 ± 0.2% and 84%, respectively. In addition, in the series on biosynthesis of PGE2 (compound 50 μmol·l^−1), the “Inhibition of PGE2 production (in words)” value was “completely inhibits”. Moreover, the IC50 in the series on biosynthesis of PGE2 was 6 nM. In addition, the “Cell viability in %” value in the series on mouse peritoneal cells is 103.7 ± 0.4 (n = 8) %.
Turning to `Nc1nc(-c2ccccc2)cc(-c2ccc(OCc3ccc(Cl)cc3)cc2)n1` [Compound 1i, 4-(4-((4-chlorobenzyl)oxy)phenyl)-6-phenylpyrimidin-2-amine], in the series with mouse peritoneal cells, the “Cell viability in %” value is 102.2 ± 4.1 (n = 4) %.
For `CCCCc1c(-c2ccccc2)nc(N)nc1-c1ccc(OCc2cccc3ccccc23)cc1` [Compound 1f, 5-butyl-4-(4-(naphthalen-1-ylmethoxy)phenyl)-6-phenylpyrimidin-2-amine], the activity at 50 µM in the series on biosynthesis of PGE2 was found to be 26.3 ± 5.3%. Also, the “Cell viability in %” value in the series on mouse peritoneal cells is given as 104.8 ± 0.4 (n = 8) %.
In the case of `Nc1nc(-c2ccccc2)cc(-c2ccc(OCc3ccccc3)c(F)c2F)n1` [Compound 1l, 4-(4-(benzyloxy)-2,3-difluorophenyl)-6-phenylpyrimidin-2-amine], the activity at 50 µM in the series with biosynthesis of PGE2 worked out at 5.5 ± 0.3%. Further, in the series on mouse peritoneal cells, the “Cell viability in %” value was 102.6 ± 3.7 (n = 4) %.
As to `CCCCc1c(-c2ccccc2)nc(N)nc1-c1ccc(OCc2ccc(OC)cc2)cc1` [Compound 1h, 5-butyl-4-(4-((4-methoxybenzyl)oxy)phenyl)-6-phenylpyrimidin-2-amine], in the series on biosynthesis of PGE2, the activity at 50 µM was found to be 2 ± 1.5% and the IC50 amounted to 5400 nM. In the series with mouse peritoneal cells, the “Cell viability in %” value is listed as 104.2 ± 0.3 (n = 8) %.
As for `CCCCc1c(-c2ccc(OCc3ccccc3)cc2)nc(N)nc1-c1cccc(Cl)c1` [Compound 2c, 4-(4-(benzyloxy)phenyl)-5-butyl-6-(3-chlorophenyl)pyrimidin-2-amine], the activity at 50 µM in the series with biosynthesis of PGE2 was 12.6 ± 1.7%. Also, the “Cell viability in %” value with mouse peritoneal cells is reported as 101.3 ± 2.0 (n = 4) %.
As for `CCCCc1c(-c2ccccc2)nc(N)nc1-c1ccc(OC(C)C)cc1` [Compound 1b, 5-butyl-4-(4-isopropoxyphenyl)-6-phenylpyrimidin-2-amine], the activity at 50 µM with biosynthesis of PGE2 came to 12.3 ± 0.5%. The “Cell viability in %” value with mouse peritoneal cells is 71.2 ± 1.9 (n = 8) %.
In the case of `CCCCc1c(-c2ccccc2)nc(N)nc1-c1ccc(OCc2ccccc2)cc1` [Compound 1e, 4-(4-(benzyloxy)phenyl)-5-butyl-6-phenylpyrimidin-2-amine], the IC50 in the series on biosynthesis of PGE2 was determined as 94 nM.
Turning to `CCCCc1c(-c2ccc(OCc3ccccc3)cc2)nc(N)nc1-c1cccc(OC)c1` [Compound 2a, 4-(4-(benzyloxy)phenyl)-5-butyl-6-(3-methoxyphenyl)pyrimidin-2-amine], in the series with biosynthesis of PGE2, the activity at 50 µM stood at 10 ± 2%. Further, in the series on mouse peritoneal cells, the “Cell viability in %” value is 43.1% and 43.1 ± 8.4 (n = 4) %.
As to `CCCCc1c(-c2ccccc2)nc(N)nc1-c1ccc(OCc2ccc(Cl)cc2)cc1` [Compound 1j, 5-butyl-4-(4-((4-chlorobenzyl)oxy)phenyl)-6-phenylpyrimidin-2-amine], in the series on biosynthesis of PGE2, the activity at 50 µM was 0.7 ± 0.5% and the IC50 came to 77 nM. Besides, the “Cell viability in %” value with mouse peritoneal cells is 101.2 ± 0.8 (n = 8) %.
For the molecule `CCCCc1c(-c2ccccc2)nc(N)nc1-c1ccc(OCc2ccccc2)cc1C` [Compound 1k, 4-(4-(benzyloxy)-2-methylphenyl)-5-butyl-6-phenylpyrimidin-2-amine], the activity at 50 µM in the series with biosynthesis of PGE2 worked out at 51.1 ± 0.8%. The “Cell viability in %” value with mouse peritoneal cells was 103.2 ± 0.5 (n = 8) %.

These data come from US11111219B2, “Polysubstituted pyrimidines inhibiting the formation of prostaglandin E2, a method of production thereof and use thereof” (USTAV ORGANICKE CHEMIE A BIOCHEMIE AV CR, V.V.I., priority 2017, dated 2021).
